This note sets out measurements from patent publication US12649751B2 (Arcus Biosciences, Inc., priority 2022, dated 2026).

The target in this assay is HPK1 (Homo sapiens, UniProt Q92918). Put plainly: HPK1 Biochemical Assay (ADP-Glo luminescence; low ATP 10 μM or high ATP 200 μM). As to conditions: 2 nM HPK1, 10 μM ATP. Here is the method: Dose-response assays were performed in Corning® Low Volume 384-well assay plates containing 100 nL of 22 serial 2-fold compound dilutions. Wells containing DMSO alone were used as negative control. A kinase mixture (5 μL) containing 2 nM HPK1 (or 5 nM for high ATP assay) in assay buffer (50 mM Hepes pH 7.4, 10 mM MgCl2, 0.01% Brij-15, 0.01% bovine serum albumin, and 1 mM dithiothreitol) was added to the assay plates and incubated at 25° C. for 1 hour. Wells without HPK1 were used as positive control. A […] of 10 μM ATP (or 200 μM for high ATP) and 0.2 μg/μL […] was then added to the wells, resulting in a 10 μL total reaction volume. Following incubation of the assay plates at 25° C. for 1 hour, 10 μL of ADP-Glo reagent was added to the wells and the plates were incubated at 25° C. for a further 40 minutes (or 1 hour for high ATP assay). Finally, 20 μL of Kinase Detection Reagent was added, and the plates were incubated for another 30 minutes at 25° C. An Envision plate reader was then used to detect the luminescence signals. IC50 values were determined by fitting the data to a standard 4-parameter logistic equation. The results are summarized in the Biochemical Potency columns of Tables 4 and 5 below (Biochemical Potency (high ATP); Biochemical Potency (low ATP)).
HPK1, sequence (Q92918 whole entry, species assumed): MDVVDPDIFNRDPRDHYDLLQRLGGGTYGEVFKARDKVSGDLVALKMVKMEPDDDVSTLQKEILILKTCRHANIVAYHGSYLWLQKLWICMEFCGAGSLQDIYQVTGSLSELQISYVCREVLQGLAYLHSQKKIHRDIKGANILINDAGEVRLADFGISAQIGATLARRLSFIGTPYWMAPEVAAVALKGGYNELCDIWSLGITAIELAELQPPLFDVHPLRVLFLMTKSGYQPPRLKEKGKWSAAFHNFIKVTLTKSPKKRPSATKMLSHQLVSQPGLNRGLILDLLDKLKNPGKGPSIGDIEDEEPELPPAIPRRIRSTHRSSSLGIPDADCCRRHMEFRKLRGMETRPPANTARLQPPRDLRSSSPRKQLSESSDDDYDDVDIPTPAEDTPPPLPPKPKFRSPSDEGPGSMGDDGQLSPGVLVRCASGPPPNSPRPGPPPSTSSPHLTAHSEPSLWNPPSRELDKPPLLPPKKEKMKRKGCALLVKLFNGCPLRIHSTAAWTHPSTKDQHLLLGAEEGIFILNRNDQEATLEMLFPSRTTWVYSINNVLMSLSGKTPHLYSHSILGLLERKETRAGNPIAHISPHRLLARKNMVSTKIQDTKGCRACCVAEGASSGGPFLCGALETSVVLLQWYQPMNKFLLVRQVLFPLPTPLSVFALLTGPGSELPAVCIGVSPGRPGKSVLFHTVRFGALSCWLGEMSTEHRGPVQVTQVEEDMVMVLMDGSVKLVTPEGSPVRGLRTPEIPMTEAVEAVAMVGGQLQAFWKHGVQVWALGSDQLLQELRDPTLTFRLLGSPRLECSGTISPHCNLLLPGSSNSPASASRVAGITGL
Background: ADP-Glo first removes unused ATP, then detects ADP through luciferase.

[1] abbreviates: read-out: Biochemical Potency (low ATP).

Molecules are shown by their SMILES. Where two headings read alike, the source gives them in different places.

Regarding `Cc1cc(-c2nc3cc(Nc4ccc(N5CCOCC5)c(CN5CCCC5)c4)ncc3s2)ccn1` [Example 2, 2-(2-Methylpyridin-4-yl)-N-[4-(morpholin-4-yl)-3-[(pyrrolidin-1-yl)methyl]phenyl]-[1,3]thiazolo[5,4-c]pyridin-6-amine], under setting [1], the IC50 lay within 100 to 1000 nM.
Same read-out and setting: for `Fc1cccnc1-c1nc2cc(Nc3ccc(N4CCOCC4)c(CN4CCCC4)n3)ncc2s1` [Example 8, N-[2-(3-Fluoropyridin-2-yl)-[1,3]thiazolo[5,4-c]pyridin-6-yl]-5-(morpholin-4-yl)-6-[(pyrrolidin-1-yl)methyl]pyridin-2-amine] the value was less than 100 nM.
As for `Cc1cccc(C)c1-c1nc2cc(Nc3ccc(N4CCC(F)(F)C4)c(CN4CCCC4)n3)ncc2s1` [Example 10, 5-(3,3-Difluoropyrrolidin-1-yl)-N-[2-(2,6-dimethylphenyl)-[1,3]thiazolo[5,4-c]pyridin-6-yl]-6-[(pyrrolidin-1-yl)methyl]pyridin-2-amine], the IC50 under setting [1] was less than 100 nM.
Still for that read-out and setting: for `Fc1cccc(F)c1-c1nc2cc(Nc3ccc(N4CCC(F)(F)C4)c(CN4CCCC4)n3)ncc2s1` [Example 11, N-[2-(2,6-Difluorophenyl)-[1,3]thiazolo[5,4-c]pyridin-6-yl]-5-(3,3-difluoropyrrolidin-1-yl)-6-[(pyrrolidin-1-yl)methyl]pyridin-2-amine] the value was 100 to 1000 nM.
As to `N#Cc1ccc(-c2nc3cc(Nc4ccc(N5CCOCC5)c(CN5CCCC5)n4)ncc3s2)cc1` [Example 21, 4-(6-{[5-(Morpholin-4-yl)-6-[(pyrrolidin-1-yl)methyl]pyridin-2-yl]amino}-[1,3]thiazolo[5,4-c]pyridin-2-yl)benzonitrile], the IC50 under setting [1] is less than 100 nM.
On to `Fc1ccc(-c2nc3cc(Nc4ccc(N5CCOCC5)c(CN5CCCC5)n4)ncc3s2)cc1` [Example 22, N-[2-(4-Fluorophenyl)-[1,3]thiazolo[5,4-c]pyridin-6-yl]-5-(morpholin-4-yl)-6-[(pyrrolidin-1-yl)methyl]pyridin-2-amine], for which the IC50 under setting [1] is less than 100 nM.
Turning to `c1n[nH]cc1-c1nc2cc(Nc3ccc(N4CCOCC4)c(CN4CCCC4)n3)ncc2s1` [Example 25, 5-(Morpholin-4-yl)-N-[2-(1H-pyrazol-4-yl)-[1,3]thiazolo[5,4-c]pyridin-6-yl]-6-[(pyrrolidin-1-yl)methyl]pyridin-2-amine], the IC50 under setting [1] is less than 100 nM.
For `Cc1ccc(Nc2cc3nc(-c4ccc(F)cc4)sc3cn2)nc1CN1CCCC1` [Example 32, N-[2-(4-Fluorophenyl)-[1,3]thiazolo[5,4-c]pyridin-6-yl]-5-methyl-6-[(pyrrolidin-1-yl)methyl]pyridin-2-amine], the IC50 under setting [1] is less than 100 nM.
The same measure, in the same setting: for `Cc1ccc(Nc2cc3nc(-c4cc(F)cc(F)c4)sc3cn2)nc1CN1CCCC1` [Example 33, N-[2-(3,5-Difluorophenyl)-[1,3]thiazolo[5,4-c]pyridin-6-yl]-5-methyl-6-[(pyrrolidin-1-yl)methyl]pyridin-2-amine] the value was 100 to 1000 nM; for `Cc1ccc(Nc2cc3nc(-c4cccc(F)c4)sc3cn2)nc1CN1CCCC1` [Example 34], less than 100 nM.
`Cc1ccc(Nc2cc3nc(-c4ccncc4)sc3cn2)nc1CN1CCCC1` [Example 35, 5-Methyl-N-[2-(pyridin-4-yl)-[1,3]thiazolo[5,4-c]pyridin-6-yl]-6-[(pyrrolidin-1-yl)methyl]pyridin-2-amine] showed an IC50 (Biochemical Potency (low ATP)) of less than 100 nM.
On to `Cc1ccc(Nc2cc3nc(-c4cnn(C(F)(F)F)c4)sc3cn2)nc1CN1CCCC1` [Example 36, 5-Methyl-6-[(pyrrolidin-1-yl)methyl]-N-{2-[1-(trifluoromethyl)-1H-pyrazol-4-yl]-[1,3]thiazolo[5,4-c]pyridin-6-yl}pyridin-2-amine], for which the IC50 under setting [1] fell in the range of 100 to 1000 nM.
For the compound `Cc1ccc(Nc2cc3nc(-c4cnn(C5CCOC5)c4)sc3cn2)nc1CN1CCCC1` (stereo not drawn) [Example 38, 5-Methyl-N-{2-[1-(oxolan-3-yl)-1H-pyrazol-4-yl]-[1,3]thiazolo[5,4-c]pyridin-6-yl}-6-[(pyrrolidin-1-yl)methyl]pyridin-2-amine], the IC50 under setting [1] was less than 100 nM.
For `Cc1ccc(Nc2cc3nc(-c4cnn(C5CCOCC5)c4)sc3cn2)nc1CN1CCCC1` [Example 39, 5-Methyl-N-{2-[1-(oxan-4-yl)-1H-pyrazol-4-yl]-[1,3]thiazolo[5,4-c]pyridin-6-yl}-6-[(pyrrolidin-1-yl)methyl]pyridin-2-amine], under setting [1], the IC50 was less than 100 nM.
Regarding `Cc1ccc(Nc2cc3nc(-c4cnn(CCO)c4)sc3cn2)nc1CN1CCCC1` [Example 40, 2-{4-[6-({5-Methyl-6-[(pyrrolidin-1-yl)methyl]pyridin-2-yl}amino)-[1,3]thiazolo[5,4-c]pyridin-2-yl]-1H-pyrazol-1-yl}ethan-1-ol], the IC50 under setting [1] is less than 100 nM.
On to `Cc1ccc(Nc2cc3nc(-c4ncccc4C)sc3cn2)nc1CN1CC[C@@H](F)C1` [Example 42, 6-{[(3R)-3-Fluoropyrrolidin-1-yl]methyl}-5-methyl-N-[2-(3-methylpyridin-2-yl)-[1,3]thiazolo[5,4-c]pyridin-6-yl]pyridin-2-amine], for which, under setting [1], the IC50 was less than 100 nM.
Still for that read-out and setting: the result for `Cc1ccc(Nc2cc3nc(-c4ncccc4C)sc3cn2)nc1CN1CCC[C@@H]1C` [Example 45, 5-Methyl-N-[2-(3-methylpyridin-2-yl)-[1,3]thiazolo[5,4-c]pyridin-6-yl]-6-{[(2S)-2-methylpyrrolidin-1-yl]methyl}pyridin-2-amine] reads less than 100 nM.
Consider `Cc1ccc(Nc2cc3nc(-c4ncccc4C)sc3cn2)nc1CN1CCCC1(C)C` [Example 47, 6-[(2,2-Dimethylpyrrolidin-1-yl)methyl]-5-methyl-N-[2-(3-methylpyridin-2-yl)-[1,3]thiazolo[5,4-c]pyridin-6-yl]pyridin-2-amine], for which the IC50 under setting [1] is less than 100 nM.
Same read-out and setting: for `Cc1ccc(Nc2cc3nc(-c4ncccc4C)sc3cn2)nc1CN1CCC[C@H]1CO` [Example 48, [(2S)-1-[(3-Methyl-6-{[2-(3-methylpyridin-2-yl)-[1,3]thiazolo[5,4-c]pyridin-6-yl]amino}pyridin-2-yl)methyl]pyrrolidin-2-yl]methanol] the value was less than 100 nM.
Same read-out and setting: the result for `Cc1ccc(Nc2cc3nc(-c4ncccc4C(C)C)sc3cn2)nc1CN1CCCC1` [Example 50, 5-Methyl-N-{2-[3-(propan-2-yl)pyridin-2-yl]-[1,3]thiazolo[5,4-c]pyridin-6-yl}-6-[(pyrrolidin-1-yl)methyl]pyridin-2-amine] reads less than 100 nM; that for `Cc1ccc(Nc2cc3nc(-c4cnn(C)c4)sc3cn2)nc1CN1CCCC1` [Example 51, 5-Methyl-N-[2-(1-methyl-1H-pyrazol-4-yl)-[1,3]thiazolo[5,4-c]pyridin-6-yl]-6-[(pyrrolidin-1-yl)methyl]pyridin-2-amine], less than 100 nM; that for `Cc1cccnc1-c1nc2cc(Nc3cccc(CN4CCCC4)n3)ncc2s1` [Example 52, N-[2-(3-Methylpyridin-2-yl)-[1,3]thiazolo[5,4-c]pyridin-6-yl]-6-[(pyrrolidin-1-yl)methyl]pyridin-2-amine], less than 100 nM.
In the case of `Cc1ccc(Nc2cc3nc(-c4cccnc4)sc3cn2)nc1CN1CCCC1` [Example 53, 5-Methyl-N-[2-(pyridin-3-yl)-[1,3]thiazolo[5,4-c]pyridin-6-yl]-6-[(pyrrolidin-1-yl)methyl]pyridin-2-amine], under setting [1], the IC50 is less than 100 nM.
On the same count and under the same terms, the result for `Cc1ccc(Nc2cc3nc(-c4ncccn4)sc3cn2)nc1CN1CCCC1` [Example 55, 5-Methyl-N-[2-(pyrimidin-2-yl)-[1,3]thiazolo[5,4-c]pyridin-6-yl]-6-[(pyrrolidin-1-yl)methyl]pyridin-2-amine] reads 100 to 1000 nM; that for `Cc1ccc(Nc2cc3nc(-c4cnccn4)sc3cn2)nc1CN1CCCC1` [Example 56, 5-Methyl-N-[2-(pyrazin-2-yl)-[1,3]thiazolo[5,4-c]pyridin-6-yl]-6-[(pyrrolidin-1-yl)methyl]pyridin-2-amine], 100 to 1000 nM; that for `Cc1ccc(Nc2cc3nc(-c4cncnc4)sc3cn2)nc1CN1CCCC1` [Example 58, 5-Methyl-N-[2-(pyrimidin-5-yl)-[1,3]thiazolo[5,4-c]pyridin-6-yl]-6-[(pyrrolidin-1-yl)methyl]pyridin-2-amine], 100 to 1000 nM.
The same measure, in the same setting: the result for `Cc1cccnc1-c1nc2cc(Nc3ccc(C(F)(F)F)c(CN4CCCC4)n3)ncc2s1` [Example 59, N-[2-(3-Methylpyridin-2-yl)-[1,3]thiazolo[5,4-c]pyridin-6-yl]-6-[(pyrrolidin-1-yl)methyl]-5-(trifluoromethyl)pyridin-2-amine] reads 100 to 1000 nM.
On the same count and under the same terms, the result for `Cc1cccnc1-c1nc2cc(Nc3ccc(F)c(CN4CCCC4)n3)ncc2s1` [Example 61, 5-Fluoro-N-[2-(3-methylpyridin-2-yl)-[1,3]thiazolo[5,4-c]pyridin-6-yl]-6-[(pyrrolidin-1-yl)methyl]pyridin-2-amine] reads less than 100 nM; that for `Cc1ccc(Nc2cc3nc(-c4ncccc4C)sc3cn2)nc1CCN1CCCC1` [Example 62, 5-Methyl-N-[2-(3-methylpyridin-2-yl)-[1,3]thiazolo[5,4-c]pyridin-6-yl]-6-[2-(pyrrolidin-1-yl)ethyl]pyridin-2-amine], 100 to 1000 nM; that for `Cc1cccnc1-c1nc2cc(Nc3ccc(N4CCOCC4)c(CN4CCCCC4)n3)ncc2s1` [Example 64, N-[2-(3-Methylpyridin-2-yl)-[1,3]thiazolo[5,4-c]pyridin-6-yl]-5-(morpholin-4-yl)-6-[(piperidin-1-yl)methyl]pyridin-2-amine], less than 100 nM.
